According to patent publication US20230141034A1, “ADAMANTANE-1-CARBONYL THIOUREA, AS P2X RECEPTOR ANTAGONIST” (COMSATS UNIVERSITY ISLAMABAD, priority 2021, published 2023):
Read-outs that look alike come from different tables or passages of the source.

Tests used:
[1] = MTT cytotoxicity assay, HEK-293 cell line; type: cell-based; settings: human, HEK-293 cells, final concentration of 50 μM
Procedure: (§1) Cellular safety profiling of adamantane thioureas were done through MTT assay. All compounds were analyzed for toxicity at final concentration of 50 μM. […] Toxicity was determined against two cancer cell lines including human 1321N1 Astrocytoma cell line, HeLa cell line and a normal HEK-293 cell line.
(§2) c. Cell Viability Assay (MTT Assay)
(§3) After 24 h of incubation at 37° C. in CO2 incubator, culture media will be replaced with serum-free media along with test compounds and re-incubate. After 24 h, media will be removed and add 100 μL of MTT reagent (0.5-5 mg/mL) and will be incubated for a further 4 h, at 37° C. Absorbance will be measured at 570 and 630 nm to calculate cell viability.

h-P2X7 = molecular target: T1, h-P2X7 (Homo sapiens, UniProt Q99572); assay: Ca2+ flux assay h-P2X7; settings: for inhibition at 50 µM: read-out: h-P2X7 % Inhibition
T1 sequence (Q99572 1-595): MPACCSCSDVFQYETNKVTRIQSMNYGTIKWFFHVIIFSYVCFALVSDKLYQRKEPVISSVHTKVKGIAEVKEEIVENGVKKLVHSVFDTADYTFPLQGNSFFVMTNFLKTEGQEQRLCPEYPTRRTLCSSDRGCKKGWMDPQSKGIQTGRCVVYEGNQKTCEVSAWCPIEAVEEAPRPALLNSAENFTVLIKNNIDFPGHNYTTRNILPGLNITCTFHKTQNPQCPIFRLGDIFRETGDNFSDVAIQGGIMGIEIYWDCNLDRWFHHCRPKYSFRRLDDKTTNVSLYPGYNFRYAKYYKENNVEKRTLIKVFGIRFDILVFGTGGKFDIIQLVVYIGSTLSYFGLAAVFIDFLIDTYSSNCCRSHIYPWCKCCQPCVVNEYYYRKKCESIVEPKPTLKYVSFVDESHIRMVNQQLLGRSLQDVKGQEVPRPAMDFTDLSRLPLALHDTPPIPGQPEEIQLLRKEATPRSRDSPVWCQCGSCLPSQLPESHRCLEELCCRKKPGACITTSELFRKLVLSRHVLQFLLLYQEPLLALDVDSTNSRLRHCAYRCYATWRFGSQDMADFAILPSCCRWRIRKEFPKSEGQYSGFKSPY
Procedure: (§4) Compounds were initially analyzed at a final concentration of about 50 μM and percentage of inhibition was calculated.
(§5) Calcium Mobilization Assay to Measure P2X Receptors Response Cell Culture: P2X receptors functions can be analyzed from ATP-induced increase in cytosolic Ca^2+ concentration. Two Ca^2+ chelating dyes, Fura-2 AM and Fluo-4 AM can be used to determine the intracellular Ca^2+ concentration through a fluorescent imaging micro-titer plate reader (BMG Labtech: FLUOstar Galaxy®). Non-transfected human 1321N1 astrocytoma cells, as well as P2X receptors transfected human 1321N1 astrocytoma cells will be cultured in T-75 cm^2 cell culture flask having appropriate cell culture growth media; Dulbecco's Modified Eagle's medium (DMEM) supplemented with 10% fetal bovine serum (FBS), 75 μg/mL of Hygromycin B or human P2X receptors transfected cell lines and 1% pen-strep (antibiotics). Cells will be incubated at 37° C. in 5% CO2 incubator until 80 to 90% cell confluency will be achieved. Cells will be maintained in an exponential growth phase throughout the experiment and closely monitored for contamination.
Measurement of Ca^2+ Flux
(§6) When 1321N1 cells will reach 80 to 90% of confluency, cells will be harvested from T-75 cm^2 flask by trypsinization. After washing the cells with phosphate buffer saline (PBS), cells will be seeded at a density of 20,000 cells/well in black, clear bottom, poly-D-lysine coated 96 well plate. After 16 to 24 h, cell culture media will be removed and add Hank's balanced salt solution (HBSS) containing 3 μM Ca^2+ chelating dyes Fura-2 AM or Fluo-4 AM. After 1 h of incubation at 23° C., the loading dye solution will be removed, and added seven to eight dilutions of test compounds in triplicate format. ATP (at a concentration value of EC80) or buffer will be added and measured the excitation and emission at 340/520 nm and 380/520 nm through FLUOStar Galaxy®. Assay volume for the experiment will be 200 μL. IC50 and EC50 values will be calculated by PRISM 5.0 (GrapgPad, San Diego, Calif., USA) through non-linear regression analysis.

h-P2X4 = molecular target: T2, h-P2X4 (Homo sapiens, UniProt Q99571); assay: Ca2+ flux assay h-P2X4; settings: for inhibition at 50 µM: read-out: h-P2X4 % Inhibition
T2 sequence (Q99571 1-388): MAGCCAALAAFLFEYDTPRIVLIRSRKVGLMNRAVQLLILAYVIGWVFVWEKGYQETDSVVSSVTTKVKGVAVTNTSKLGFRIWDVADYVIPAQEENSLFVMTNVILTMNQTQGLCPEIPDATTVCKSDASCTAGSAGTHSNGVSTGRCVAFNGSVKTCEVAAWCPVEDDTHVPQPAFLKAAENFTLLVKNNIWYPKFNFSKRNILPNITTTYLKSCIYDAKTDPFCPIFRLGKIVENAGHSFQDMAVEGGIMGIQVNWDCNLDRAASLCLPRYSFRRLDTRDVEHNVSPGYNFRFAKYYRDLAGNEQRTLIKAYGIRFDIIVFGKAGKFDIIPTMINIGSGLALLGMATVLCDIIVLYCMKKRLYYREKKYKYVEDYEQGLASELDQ
Procedure: as §4, §5
Measurement of Ca^2+ Flux
as §6

[2] = MTT cytotoxicity assay, HeLa cell line; type: cell-based; settings: human, HeLa cells, final concentration of 50 μM
Procedure: as §1, §2, §3

h-P2X2 = molecular target: T3, h-P2X2 (Homo sapiens, UniProt Q9UBL9); assay: Ca2+ flux assay h-P2X2; settings: for IC50: read-out: h-P2X2 IC50 ± SEM, Ca2+ flux, n = 3; for inhibition at 50 µM: read-out: h-P2X2 % Inhibition
T3 sequence (Q9UBL9 1-471): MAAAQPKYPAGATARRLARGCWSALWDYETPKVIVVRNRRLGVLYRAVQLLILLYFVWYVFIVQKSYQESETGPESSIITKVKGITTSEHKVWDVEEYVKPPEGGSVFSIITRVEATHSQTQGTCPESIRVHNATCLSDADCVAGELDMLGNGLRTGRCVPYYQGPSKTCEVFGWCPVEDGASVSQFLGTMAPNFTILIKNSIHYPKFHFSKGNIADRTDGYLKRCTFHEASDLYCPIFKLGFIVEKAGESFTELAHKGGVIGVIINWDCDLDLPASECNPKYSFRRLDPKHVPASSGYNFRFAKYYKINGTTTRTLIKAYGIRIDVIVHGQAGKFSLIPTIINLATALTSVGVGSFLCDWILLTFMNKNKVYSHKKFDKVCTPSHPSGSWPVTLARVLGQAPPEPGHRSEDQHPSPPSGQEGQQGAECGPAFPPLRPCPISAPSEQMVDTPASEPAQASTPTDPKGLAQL
Procedure: as §4, §5
Measurement of Ca^2+ Flux
as §6

[3] = MTT cytotoxicity assay, human 1321N1 astrocytoma cell line; type: cell-based; settings: human, 1321N1 astrocytoma cells, final concentration of 50 μM
Procedure: as §1, §2, §3

h-P2X5 = h-P2X5 (Homo sapiens, UniProt Q93086); assay: Ca2+ flux assay h-P2X5; settings: for inhibition at 50 µM: read-out: h-P2X5 % Inhibition
Procedure: as §4, §5
Measurement of Ca^2+ Flux
as §6

[4] = read-out: h-P2X7 IC50 ± SEM, Ca2+ flux, n = 3
[5] = read-out: h-P2X4 IC50 ± SEM, Ca2+ flux, n = 3

h-P2X5, sequence (Q93086 whole entry): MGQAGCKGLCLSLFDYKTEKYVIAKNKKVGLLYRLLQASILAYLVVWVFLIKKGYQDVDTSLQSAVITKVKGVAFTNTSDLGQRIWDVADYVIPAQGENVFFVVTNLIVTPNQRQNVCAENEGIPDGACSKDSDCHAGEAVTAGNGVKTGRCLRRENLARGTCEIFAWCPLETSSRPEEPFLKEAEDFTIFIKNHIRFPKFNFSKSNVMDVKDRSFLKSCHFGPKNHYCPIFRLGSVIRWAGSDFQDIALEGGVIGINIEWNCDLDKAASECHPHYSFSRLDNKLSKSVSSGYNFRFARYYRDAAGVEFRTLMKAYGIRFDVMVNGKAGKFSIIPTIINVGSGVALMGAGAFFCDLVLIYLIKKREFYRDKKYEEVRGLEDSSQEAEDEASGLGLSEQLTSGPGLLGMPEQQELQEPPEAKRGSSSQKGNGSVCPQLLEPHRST

| IC50 (h-P2X7; [4]) | IC50 (h-P2X4; [5]) | IC50 (h-P2X2) | IC50 (h-P2X5) | inhibition at 50 µM (h-P2X7) | inhibition at 50 µM (h-P2X4) | inhibition at 50 µM (h-P2X5) | inhibition at 50 µM (h-P2X2) | IC50 (h-P2X4) | IC50 (h-P2X7) | SMILES | cytotoxicity at 24 h, 50 µM [1] | cytotoxicity at 24 h, 50 µM [2] | cytotoxicity at 24 h, 50 µM [3] | IC50 (h-P2X5; read-out: h-P2X5 IC50 ± SEM, Ca2+ flux, n = 3) |
| --- | --- | --- | --- | --- | --- | --- | --- | --- | --- | --- | --- | --- | --- | --- |
| 3.71 ± 0.78 µM | 1.56 ± 0.21 µM | 4.85 ± 0.32 µM | 6.04 ± 1.2 µM | – | – | – | – | – | – | Cc1ccc(NC(=S)NC(=O)C23CC4CC(CC(C4)C2)C3)c(Br)c1 [Im, N-((2-bromo-4-methylphenyl)carbamothioyl)adamantane-1-carboxamide] | 18.9% | 15.4% | 7.29% | – |
| – | – | 2.31 ± 0.31 µM | – | 15.1% | 38% | 44% | – | – | – | COc1cccc(NC(=S)NC(=O)C23CC4CC(CC(C4)C2)C3)c1 [Ii, N-((3-methoxyphenyl)carbamothioyl)adamantane-1-carboxamide] | 20.7% | 18.1% | 6.53% | – |
| – | – | 5.24 ± 0.32 µM | – | 29.4% | 44.9% | 44.5% | – | – | – | COc1ccc(NC(=S)NC(=O)C23CC4CC(CC(C4)C2)C3)cc1 [Ij, N-((4-methoxyphenyl)carbamothioyl)adamantane-1-carboxamide] | 10.6% | 8.01% | 4.56% | – |
| 2.53 ± 0.72 µM | 1.29 ± 0.09 µM | 4.58 ± 0.21 µM | – | – | – | 32.1% | – | – | – | O=C(NC(=S)Nc1cc([N+](=O)[O-])ccc1Cl)C12CC3CC(CC(C3)C1)C2 [Ih, N-((2-chloro-5-nitrophenyl)carbamothioyl)adamantane-1-carboxamide] | 24.6% | 8.66% | 20.5% | – |
| 8.8 ± 1.12 µM | – | – | – | – | 46.8% | 47.7% | 36% | – | – | O=C(NC(=S)Nc1ccc(Br)cc1)C12CC3CC(CC(C3)C1)C2 [Il, N-((4-bromophenyl)carbamothioyl)adamantane-1-carboxamide] | 18.7% | 7.19% | 15.4% | – |
| 4.9 ± 1.04 µM | 3.46 ± 0.4 µM | 0.732 ± 0.01 µM | 1.48 ± 0.23 µM | – | – | – | – | – | – | COc1ccc(NC(=S)NC(=O)C23CC4CC(CC(C4)C2)C3)cc1OC [Ik, N-((3,4-dimethoxyphenyl)carbamothioyl)adamantane-1-carboxamide] | 7.2% | 14.3% | 19.4% | – |
| 1.47 ± 0.09 µM | 1.08 ± 0.02 µM | – | – | – | – | 40.6% | 32.6% | – | – | O=C(NC(=S)Nc1ccccc1O)C12CC3CC(CC(C3)C1)C2 [Ia, N-((2-hydroxyphenyl)carbamothioyl)adamantane-1-carboxamide] | 26.6% | 13.1% | 10.3% | – |
| – | – | – | – | 11.2% | – | 16.2% | 41.1% | 5.73 ± 0.42 µM | – | O=C(NC(=S)Nc1cc(Br)ccc1Br)C12CC3CC(CC(C3)C1)C2 [Iq, N-((2,5-dibromophenyl)carbamothioyl)adamantane-1-carboxamide] | 14.8% | 20.7% | 21.2% | – |
| – | – | – | – | 18.8% | 34.9% | 27.1% | 22.7% | – | – | Cc1cc(Br)ccc1NC(=S)NC(=O)C12CC3CC(CC(C3)C1)C2 [In, N-((4-bromo-2-methylphenyl)carbamothioyl)adamantane-1-carboxamide] | 14% | 4.1% | 14.3% | – |
| – | – | – | – | 5.01% | 0% | 11.2% | 2.15% | – | – | CN(C)CCCNC(=S)NC(=O)C12CC3CC(CC(C3)C1)C2 [Ir, N-((3-(dimethylamino)propyl)carbamothioyl)adamantane-1-carboxamide] | 5.16% | 8.14% | 10.1% | – |
| – | – | – | – | – | – | 42.5% | 18.1% | 4.19 ± 0.23 µM | 0.829 ± 0.12 µM | NS(=O)(=O)c1cccc(NC(=S)NC(=O)C23CC4CC(CC(C4)C2)C3)c1 [Ig, N-((3-sulfamoylphenyl)carbamothioyl)adamantane-1-carboxamide] | 3.77% | 12.5% | 12.9% | – |
| – | 1.28 ± 0.11 µM | 1.06 ± 0.05 µM | 3.4 ± 0.4 µM | – | – | – | – | – | – | O=C(NC(=S)Nc1cc(Cl)c(O)c(Cl)c1)C12CC3CC(CC(C3)C1)C2 [Id, N-((3,5-dichloro-4-hydroxyphenyl)carbamothioyl)adamantane-1-carboxamide] | 1.06% | 5.4% | 6.18% | – |
| – | – | – | – | – | – | 20.4% | 30.5% | 4.53 ± 0.39 µM | 4.02 ± 0.64 µM | O=C(NC(=S)Nc1cc(Br)c(O)c(C(F)(F)F)c1)C12CC3CC(CC(C3)C1)C2 [Ie, N-((3-bromo-4-hydroxy-5-(trifluoromethyl)phenyl)carbamothioyl)adamantane-1-carboxamide] | 6.85% | 11.9% | 5.37% | – |
| – | – | – | – | 19.1% | 36.7% | 43.6% | 32.6% | – | – | O=C(NC(=S)Nc1cccc(O)c1)C12CC3CC(CC(C3)C1)C2 [Ib, N-((3-hydroxyphenyl)carbamothioyl)adamantane-1-carboxamide] | 6.95% | 11% | 5.67% | – |
| 1.4 ± 0.18 µM | – | – | – | – | 32.4% | 33.2% | 37.9% | – | – | O=C(NC(=S)Nc1ccc(O)cc1)C12CC3CC(CC(C3)C1)C2 [Ic, N-((4-hydroxyphenyl)carbamothioyl)adamantane-1-carboxamide] | 3.02% | 8.66% | 19% | – |

| SMILES | IC50 (h-P2X7; [4]) | IC50 (h-P2X4; [5]) | IC50 (h-P2X2) | IC50 (h-P2X5) | inhibition at 50 µM (h-P2X7) | inhibition at 50 µM (h-P2X4) | inhibition at 50 µM (h-P2X5) | inhibition at 50 µM (h-P2X2) | IC50 (h-P2X4) | IC50 (h-P2X7) | cytotoxicity at 24 h, 50 µM [1] | cytotoxicity at 24 h, 50 µM [2] | cytotoxicity at 24 h, 50 µM [3] | IC50 (h-P2X5; read-out: h-P2X5 IC50 ± SEM, Ca2+ flux, n = 3) |
| --- | --- | --- | --- | --- | --- | --- | --- | --- | --- | --- | --- | --- | --- | --- |
| Cc1ccc(C(=O)Nc2ccc(S(=O)(=O)O)c3cc(S(=O)(=O)O)cc(S(=O)(=O)O)c23)cc1NC(=O)c1cccc(NC(=O)Nc2cccc(C(=O)Nc3cc(C(=O)Nc4ccc(S(=O)(=O)O)c5cc(S(=O)(=O)O)cc(S(=O)(=O)O)c45)ccc3C)c2)c1 [Suramin, reference compound] | – | 5.64 ± 0.04 µM | 13.45 ± 0.11 µM | – | – | – | – | – | – | – | 48% | 21.7% | 18.6% | 16.1 ± 0.5 µM |
